Measured values from ChEMBL document CHEMBL3885861, “Open TG-GATES”.

Species: Rattus norvegicus
Assay: Open TG-GATES - Regimen: Daily Repeat
Format: toxicity, organism-based, Sprague-Dawley
Set-up: regimen Daily Repeat, gender Male, age 6 weeks
Details: in vivo, po, 30 mg/kg, route gavage, dose level Low; for APTT / Bas / Eos / Fbg / Hb / Ht / Lym / MCH / MCHC / MCV / Mono / Neu / PT / Plat / RBC / Ret / WBC: tissue Blood; for KIDNEY_L / KIDNEY_R / KIDNEY_TOTAL: tissue Kidney; for LIVER: tissue Liver; for A/G / ALP / ALT / AST / BUN / CRE / Ca / Cl / DBIL / GLC / IP / K / LDH / Na / PL / RALB / TBIL / TC / TG / TP / gamma-GTP: tissue Plasma

## ClC(Cl)(Cl)Cl [CARBON TETRACHLORIDE]
72 h, time 3 day
  TERMINAL_BW: 222 g
  APTT: 18.7 s
  Bas: 0%
  Eos: 1%
  Fbg: 237.4 mg/dL
  Hb: 13.4 g/dL
  Ht: 39.2%
  Lym: 77.4%
  MCH: 22.1 pg
  MCHC: 34.1%
  MCV: 64.8 fL
  Mono: 2.4%
  Neu: 18.8%
  PT: 11.6 s
  Plat: 134.7 x10_4/uL
  RBC: 606.8 x10_4/ul
  Ret: 7.5%
  WBC: 108.2 x10_2/uL
  KIDNEY_L: 1 g
  KIDNEY_R: 1 g
  KIDNEY_TOTAL: 1.9 g
  LIVER: 11.4 g
  A/G: 1.4
  ALP: 1206 IU/L
  ALT: 44.4 IU/L
  AST: 65.8 IU/L
  BUN: 15.2 mg/dL
  CRE: 0.4 mg/dL
  Ca: 10.8 mg/dL
  Cl: 103.4 meq/L
  DBIL: 0.072 mg/dL
  GLC: 197.8 mg/dL
  IP: 7.3 mg/dL
  K: 4 meq/L
  LDH: 206.4 IU/L
  Na: 140.6 meq/L
  PL: 166 mg/dL
  RALB: 3.2 g/dL
  TBIL: 0.1 mg/dL
  TC: 86.6 mg/dL
  TG: 72.6 mg/dL
  TP: 5.6 g/dL
  gamma-GTP: 1.4 IU/L
[…], time 7 day
  TERMINAL_BW: 246 g
  APTT: 19.6 s
  Bas: 0%
  Eos: 0.8%
  Fbg: 232.6 mg/dL
  Hb: 14.1 g/dL
  Ht: 41%
  Lym: 82%
  MCH: 21.2 pg
  MCHC: 34.5%
  MCV: 61.7 fL
  Mono: 2.6%
  Neu: 14%
  PT: 11.9 s
  Plat: 112.6 x10_4/uL
  RBC: 666.4 x10_4/ul
  Ret: 5.5%
  WBC: 96.8 x10_2/uL
  KIDNEY_L: 1 g
  KIDNEY_R: 1 g
  KIDNEY_TOTAL: 2.1 g
  LIVER: 12.4 g
  A/G: 1.6
  ALP: 1004.8 IU/L
  ALT: 39.2 IU/L
  AST: 70.8 IU/L
  BUN: 14.8 mg/dL
  CRE: 0.4 mg/dL
  Ca: 10.7 mg/dL
  Cl: 104.8 meq/L
  DBIL: 0.076 mg/dL
  GLC: 200.8 mg/dL
  IP: 7.7 mg/dL
  K: 4.1 meq/L
  LDH: 202 IU/L
  Na: 141.6 meq/L
  PL: 159.8 mg/dL
  RALB: 3.5 g/dL
  TBIL: 0.1 mg/dL
  TC: 75.2 mg/dL
  TG: 87.2 mg/dL
  TP: 5.6 g/dL
  gamma-GTP: 1.2 IU/L
[…], time 14 day
  TERMINAL_BW: 300.3 g
  APTT: 20.3 s
  Bas: 0%
  Eos: 0.8%
  Fbg: 238.4 mg/dL
  Hb: 14.6 g/dL
  Ht: 43%
  Lym: 80%
  MCH: 20.1 pg
  MCHC: 33.9%
  MCV: 59.4 fL
  Mono: 2%
  Neu: 16.8%
  PT: 12 s
  Plat: 113.3 x10_4/uL
  RBC: 724.8 x10_4/ul
  Ret: 3.7%
  WBC: 110.3 x10_2/uL
  KIDNEY_L: 1.2 g
  KIDNEY_R: 1.2 g
  KIDNEY_TOTAL: 2.3 g
  LIVER: 14.4 g
  A/G: 1.5
  ALP: 898.4 IU/L
  ALT: 42.2 IU/L
  AST: 75 IU/L
  BUN: 15.4 mg/dL
  CRE: 0.4 mg/dL
  Ca: 10.5 mg/dL
  Cl: 103.4 meq/L
  DBIL: 0.056 mg/dL
  GLC: 201.4 mg/dL
  IP: 8 mg/dL
  K: 3.7 meq/L
  LDH: 207.4 IU/L
  Na: 141.6 meq/L
  PL: 138.6 mg/dL
  RALB: 3.6 g/dL
  TBIL: 0.1 mg/dL
  TC: 67.4 mg/dL
  TG: 55 mg/dL
  TP: 6 g/dL
  gamma-GTP: 1 IU/L
[…], time 28 day
  TERMINAL_BW: 401.4 g
  APTT: 21.2 s
  Bas: 0%
  Eos: 1%
  Fbg: 238 mg/dL
  Hb: 14.8 g/dL
  Ht: 43.3%
  Lym: 85.4%
  MCH: 19.1 pg
  MCHC: 34.2%
  MCV: 55.8 fL
  Mono: 2.8%
  Neu: 10.2%
  PT: 12.3 s
  Plat: 113.3 x10_4/uL
  RBC: 776.8 x10_4/ul
  Ret: 2.8%
  WBC: 104.8 x10_2/uL
  KIDNEY_L: 1.3 g
  KIDNEY_R: 1.3 g
  KIDNEY_TOTAL: 2.7 g
  LIVER: 19.2 g
  A/G: 1.3
  ALP: 634.2 IU/L
  ALT: 40 IU/L
  AST: 75.2 IU/L
  BUN: 17.2 mg/dL
  CRE: 0.4 mg/dL
  Ca: 10.6 mg/dL
  Cl: 102.2 meq/L
  DBIL: 0.072 mg/dL
  GLC: 211.2 mg/dL
  IP: 6.6 mg/dL
  K: 3.9 meq/L
  LDH: 228 IU/L
  Na: 140.6 meq/L
  PL: 132 mg/dL
  RALB: 3.5 g/dL
  TBIL: 0.1 mg/dL
  TC: 59.6 mg/dL
  TG: 86.6 mg/dL
  TP: 6.2 g/dL
  gamma-GTP: 0.8 IU/L
